From patent US5998462A, “5-alkyl indole compounds” (Allelix Biopharmaceuticals Inc., priority 1996, dated 1999)

The compounds below were run against T1, 5-HT1D-like receptor (Oryctolagus cuniculus, UniProt P49144) (assay: Agonist assay: contraction of rabbit isolated saphenous vein (5-HT1D-like receptor agonist activity)). Conditions: not given.
T1 construct: Ring segments of the vein (4-5 mm in length) were cut and the endothelium gently removed; from tissue; host or cells: saphenous vein rings, endothelium removed, male New Zealand White rabbits
T1 sequence (P49144 whole entry): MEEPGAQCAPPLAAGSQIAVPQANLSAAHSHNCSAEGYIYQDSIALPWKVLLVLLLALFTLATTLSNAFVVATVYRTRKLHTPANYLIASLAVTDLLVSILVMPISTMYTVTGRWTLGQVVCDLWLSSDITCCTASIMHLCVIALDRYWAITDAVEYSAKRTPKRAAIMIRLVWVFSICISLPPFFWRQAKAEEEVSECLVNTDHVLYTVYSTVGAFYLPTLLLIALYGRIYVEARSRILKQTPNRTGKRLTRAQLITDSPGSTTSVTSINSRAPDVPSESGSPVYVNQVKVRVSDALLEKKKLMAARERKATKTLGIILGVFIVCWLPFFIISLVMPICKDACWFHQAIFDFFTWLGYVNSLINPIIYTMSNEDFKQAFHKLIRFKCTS
Design: species or system rabbit (New Zealand White)
Description: The saphenous veins from both the left and right side were cleaned of fat and connective tissue and placed in Krebs solution (118 mM NaCl, 11 mM glucose, 25 mM NaHCO3, 4.7 mM KCl, 2.5 mM CaCl2.2H2 O, 1.2 mM KH2 PO4, and 1.2 mM MgSO4.7H2 O. Ring segments of the vein (4-5 mm in length) were cut and the endothelium gently removed. The segments were mounted in 10 mL baths containing Krebs buffer and were constantly aerated with 95% oxygen/5% carbon dioxide and maintained at 37° C. and pH 7.4 in order to record the isometric tension. A resting tension of 2.5 g was applied and the tissues allowed to equilibrate for 90 minutes, with washing every 15-20 minutes. After the equilibrium period, the rings were depolarized by the addition of two aliquots of KCl (80 mM final concentration) separated by a 20 minute washing period. The tissues were then exposed to prazosin, idazoxan and indomethacin (all 1 μM final concentration) for 30 minutes in order to exclude the actions of α1 - and α2 -adrenergic receptors and prostaglandin receptors respectively. […] Responses were calculated as a percentage of the maximal contraction evoked by 80 mM KCl. Only one compound was tested per preparation.
EC50 represents the concentration of the compound which causes 50% of the maximum contraction effected by it.
Work on `Cc1ccc2[nH]cc(C[C@H]3CCCN3C)c2c1` [Example 7e, (R)-3-[(N-Methylpyrrolidin-2-yl)methyl]-5-methyl-1H-indole] yielded an EC50 of 100 nM. `CN1CCC[C@@H]1Cc1c[nH]c2ccc(C(C)(C)C)cc12` [Example 7f, (R)-3-[(N-Methylpyrrolidin-2-yl)methyl]-5-tert-butyl-1H-indole] showed an EC50 of 52 nM. For `CC(C)c1ccc2[nH]cc(C[C@H]3CCCN3C)c2c1` [Example 7g, (R)-3-[(N-Methylpyrrolidin-2-yl)methyl]-5-isopropyl-1H-indole], the EC50 was 29 nM. `Cc1ccc2[nH]cc(C[C@@H]3CCCN3C)c2c1` [Example 7h, (S)-3-[(N-Methylpyrrolidin-2-yl)methyl]-5-methyl-1H-indole] was tested, and the EC50 was 1800 nM. `Cc1ccc2[nH]cc(C[C@H]3CCCN3)c2c1` [Example 7j, (R)-5-Methyl-3-[(pyrrolidin-2-yl)methyl]-1H-indole] was tested, and the EC50 was 830 nM. With `CC(C)c1ccc2[nH]cc(CCN3CCCC3)c2c1` [Example 8a, 5-Isopropyl-3-(2-pyrrolidinylethyl)-1H-indole] the EC50 was 250 nM. `CC(C)(C)c1ccc2[nH]cc(CCN3CCCC3)c2c1` [Example 8b, 5-Tert-butyl-3-(2-pyrrolidinylethyl)-1H-indole] gave an EC50 of 1200 nM. For `Cc1ccc2[nH]cc(CCN3CCCC3)c2c1` [Example 8c, 5-Methyl-3-(2-pyrrolidinylethyl)-1H-indole], the EC50 was 590 nM. In the case of `Cc1ccc2[nH]cc(CCN3CC=CC3)c2c1` [Example 8d, 5-Methyl-3-(2-pyrrolinylethyl)-1H-indole], the EC50 is reported as 2900 nM. Compound `CCc1ccc2[nH]cc(C[C@H]3CCCN3C)c2c1` [Example 11b, (R)-5-Ethyl-3-[(N-methylpyrrolidin-2-yl)methyl]-1 H-indole] has an EC50 of 15 nM.

Same assay, conditions: rabbit isolated saphenous vein rings, 37° C., pH 7.4; prazosin, idazoxan and indomethacin 1 μM present; read-out: EC50 (concentration of the compound which causes 50% of the maximum contraction effected by it)
Work on `Cc1ccc2[nH]cc(C3CCN(C)C3)c2c1` (stereo not drawn) [Example 7i, 5-Methyl-3-(N-methylpyrrolidin-3-yl)-1H-indole] yielded an EC50 of 470 nM. For `CCc1ccc2[nH]cc(C3CCN(C)C3)c2c1` (stereo not drawn) [Example 11c, 5-Ethyl-3-(N-methylpyrrolidin-3-yl)-1H-indole], the EC50 was 900 nM.
